Results from ChEMBL document CHEMBL5550204, “Discovery of ZJCK-6-46: A Potent, Selective, and Orally Available Dual-Specificity Tyrosine Phosphorylation-Regulated Kinase 1A Inhibitor for the Treatment of Alzheimer's Disease” (J Med Chem, 2024).
Calls of active or inactive are those of the source. No cut-off for these calls is given here.

Legend:
[1] = AUC (0 to infinity) in Sprague-Dawley rat at 10 mg/kg,po measured upto 24 hrs by LC-MS/MS analysis; type: ADME, organism-based; details: in vivo
[2] = Toxicity in okadaic acid-induced cognitive impairment C57BL/6 mouse assessed as change in serum AST level at 10 to 30 mg/kg,po once daily for 2 weeks; type: organism-based; details: in vivo, 336 h, dose 10-30 mg/kg
[3] = Drug concentration in Sprague-Dawley rat brain at 10 mg/kg,po measured after 4 hrs by LC-MS/MS analysis; type: ADME, organism-based; details: read-out: Ct
[4] = AUC (0 to infinity) in Sprague-Dawley rat at 2 mg/kg,iv measured upto 24 hrs by LC-MS/MS analysis; type: ADME, organism-based; details: in vivo
[5] = Clearance in Sprague-Dawley rat at 2 mg/kg,iv measured upto 24 hrs by LC-MS/MS analysis; type: ADME, organism-based; details: in vivo
[6] = target: Dual specificity tyrosine-phosphorylation-regulated kinase 1B (Homo sapiens, UniProt Q9Y463); assay: Inhibition of DYRK1B (unknown origin) at 1 uM preincubated with enzyme for 10 mins followed by substrate and ATP addition measured after 60 mins by ADP-Glo reagent based assay relative to control; details: time 70.0 min
[7] = target: Dual specificity protein kinase CLK3 (Homo sapiens, UniProt P49761); assay: Inhibition of CLK3 (unknown origin) at 1 uM preincubated with enzyme for 10 mins followed by substrate and ATP addition measured after 60 mins by ADP-Glo reagent based assay relative to control; details: time 70.0 min
[8] = target: Dual specificity protein kinase CLK4 (Homo sapiens, UniProt Q9HAZ1); assay: Inhibition of CLK4 (unknown origin) at 1 uM preincubated with enzyme for 10 mins followed by substrate and ATP addition measured after 60 mins by ADP-Glo reagent based assay relative to control; details: time 70.0 min
CYP3A4 = CYP3A4 (Homo sapiens, UniProt P08684); assay: Inhibition of CYP3A4 in human liver microsomes using testosterone as substrate at 10 uM preincubated for 10 mins followed by NADPH addition and measured after 40 mins by LC-MS/MS analysis relative to control; type: ADME, Microsome; details: probe testosterone, time 50 min
Cytochrome P450 2C9 = Cytochrome P450 2C9 (Homo sapiens, UniProt P11712); assay: Inhibition of CYP2C9 in human liver microsomes using diclofenac as substrate preincubated for 10 mins followed by NADPH addition and measured after 40 mins by LC-MS/MS analysis; type: ADME, Microsome
[9] = Drug concentration in Sprague-Dawley rat brain at 10 mg/kg,po measured after 6 hrs by LC-MS/MS analysis; type: ADME, organism-based; details: read-out: Ct
[10] = Drug concentration in Sprague-Dawley rat plasma at 10 mg/kg,po measured after 4 hrs by LC-MS/MS analysis; type: ADME, organism-based
[11] = Drug concentration in Sprague-Dawley rat brain at 10 mg/kg,po measured after 1 hr by LC-MS/MS analysis; type: ADME, organism-based; details: read-out: Ct
[12] = target: T1, Dual specificity protein kinase CLK1 (Homo sapiens, UniProt P49759); assay: Inhibition of CLK1 (unknown origin) at 1 uM preincubated with enzyme for 10 mins followed by substrate and ATP addition measured after 60 mins by ADP-Glo reagent based assay relative to control; details: time 70.0 min
Target sequence in this assay (P49759 whole entry, looked up): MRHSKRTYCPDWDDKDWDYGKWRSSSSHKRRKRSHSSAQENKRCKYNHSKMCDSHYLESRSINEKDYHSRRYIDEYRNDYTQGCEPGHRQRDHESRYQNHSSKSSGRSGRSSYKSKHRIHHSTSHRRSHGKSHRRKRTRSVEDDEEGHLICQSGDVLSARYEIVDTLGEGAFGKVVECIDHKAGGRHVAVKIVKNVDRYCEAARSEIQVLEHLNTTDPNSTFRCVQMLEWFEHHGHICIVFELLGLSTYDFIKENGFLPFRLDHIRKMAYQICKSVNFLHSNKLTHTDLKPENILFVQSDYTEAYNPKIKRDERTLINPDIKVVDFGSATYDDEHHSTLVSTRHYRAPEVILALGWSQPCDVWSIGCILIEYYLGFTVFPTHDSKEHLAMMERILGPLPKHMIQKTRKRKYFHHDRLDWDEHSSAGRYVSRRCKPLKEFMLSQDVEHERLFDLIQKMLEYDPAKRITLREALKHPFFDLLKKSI

[13] = Acute toxicity in C57BL/6 mouse assessed as change in kidney weight at 500 mg/kg,po observed after 14 days; type: organism-based; details: in vivo, 336 h, time 14 day
[14] = Cmax in Sprague-Dawley rat at 2 mg/kg,iv measured upto 24 hrs by LC-MS/MS analysis; type: ADME, organism-based; details: in vivo
[15] = MRT (0 to t) in Sprague-Dawley rat at 10 mg/kg,po measured upto 24 hrs by LC-MS/MS analysis; type: ADME, organism-based; details: in vivo
CYP2D6 = CYP2D6 (Homo sapiens, UniProt P10635); assay: Inhibition of CYP2D6 in human liver microsomes using dextromethorphan as substrate at 10 uM preincubated for 10 mins followed by NADPH addition and measured after 40 mins by LC-MS/MS analysis relative to control; type: ADME, Microsome; details: probe dextromethorphan, time 50 min
Mus musculus [16] = assay: Antialzheimer activity in okadaic acid-induced cognitive impairment C57BL/6 mouse assessed as reduction in nerve damage in hippocampal DG region at 10 to 30 mg/kg,po once daily for 2 weeks by Nissl staining based microscopy; type: functional, organism-based; details: dose 10-30 mg/kg
[17] = Apparent permeability across basolateral to apical side in dog MDCK-MDR1 cells at 5 uM incubated for 90 mins by LC-MS/MS analysis; type: ADME, cell-based, Canis lupus familiaris
[18] = Drug concentration in Sprague-Dawley rat plasma at 10 mg/kg,po measured after 1 hr by LC-MS/MS analysis; type: ADME, organism-based
[19] = target: Dual specificity tyrosine-phosphorylation-regulated kinase 3 (Homo sapiens) (UniProt O43781); assay: Inhibition of DYRK3 (unknown origin) at 1 uM preincubated with enzyme for 10 mins followed by substrate and ATP addition measured after 60 mins by ADP-Glo reagent based assay relative to control; details: time 70.0 min
Mus musculus [20] = assay: Antialzheimer activity in okadaic acid-induced cognitive impairment C57BL/6 mouse assessed as decrease in learning deficit at 10 to 30 mg/kg,po once daily for 2 weeks by Morris water maze test; type: functional, organism-based; details: dose 10-30 mg/kg
SH-SY5Y = assay: Cytotoxicity against human SH-SY5Y cells expressing human Tau P301L mutant at 20 uM incubated for 24 hrs by MTT assay; type: functional, cell-based
Mus musculus [21] = assay: Antialzheimer activity in okadaic acid-induced cognitive impairment C57BL/6 mouse assessed as decrease in memory deficit at 10 to 30 mg/kg,po once daily for 2 weeks by Morris water maze test; type: functional, organism-based; details: dose 10-30 mg/kg
[22] = Apparent permeability across apical to basolateral side in dog MDCK-MDR1 cells at 5 uM incubated for 90 mins by LC-MS/MS analysis; type: ADME, cell-based, Canis lupus familiaris
[23] = Half life in Sprague-Dawley rat at 10 mg/kg,po measured upto 24 hrs by LC-MS/MS analysis; type: ADME, organism-based; details: in vivo
HEK-293T = assay: Cytotoxicity against human HEK293T cells expressing human Tau P301L mutant at 20 uM incubated for 24 hrs by MTT assay; type: toxicity, cell-based
Mus musculus [24] = assay: Antialzheimer activity in okadaic acid-induced cognitive impairment C57BL/6 mouse assessed as increase in number of platform crossing at 10 to 30 mg/kg,po measured after 7 days by Morris water maze test; type: functional, organism-based; details: dose 10-30 mg/kg, time 7.0 day
[25] = target: T1, Dual specificity protein kinase CLK1; assay: Inhibition of CLK1 (unknown origin) preincubated with enzyme for 10 mins followed by substrate and ATP addition measured after 60 mins by ADP-Glo reagent based assay
Target sequence in this assay (P49759 whole entry): as the sequence (P49759 whole entry, looked up) above

[26] = Toxicity in okadaic acid-induced cognitive impairment C57BL/6 mouse assessed as change in serum AKP level at 10 to 30 mg/kg,po once daily for 2 weeks; type: organism-based; details: in vivo, 336 h, dose 10-30 mg/kg
[27] = Acute toxicity in C57BL/6 mouse assessed as change in spleen weight at 500 mg/kg,po observed after 14 days; type: organism-based; details: in vivo, 336 h, time 14 day
[28] = Acute toxicity in C57BL/6 mouse assessed as histopathological change in lung at 500 mg/kg,po observed after 14 days by hematoxylin-eosin staining based analysis; type: organism-based; details: in vivo, 336 h, time 14 day
[29] = target: Glycogen synthase kinase-3 beta (Homo sapiens, UniProt P49841); assay: Inhibition of GSK-3beta (unknown origin) preincubated with enzyme for 10 mins followed by substrate and ATP addition measured after 60 mins by ADP-Glo reagent based assay
Chain of Glycogen synthase kinase-3 beta (P49841 whole entry): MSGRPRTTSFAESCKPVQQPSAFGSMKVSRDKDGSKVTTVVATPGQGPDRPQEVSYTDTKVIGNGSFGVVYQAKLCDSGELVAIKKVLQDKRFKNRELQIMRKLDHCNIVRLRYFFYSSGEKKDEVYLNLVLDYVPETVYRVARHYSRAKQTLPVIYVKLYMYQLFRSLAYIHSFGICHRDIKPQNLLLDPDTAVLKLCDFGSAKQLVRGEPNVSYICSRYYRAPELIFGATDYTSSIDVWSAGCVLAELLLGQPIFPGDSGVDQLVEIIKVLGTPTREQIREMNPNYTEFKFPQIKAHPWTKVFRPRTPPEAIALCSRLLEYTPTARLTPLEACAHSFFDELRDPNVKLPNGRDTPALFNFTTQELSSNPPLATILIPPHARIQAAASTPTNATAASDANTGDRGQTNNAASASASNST

Chain of Dual specificity tyrosine-phosphorylation-regulated kinase 3 (Homo sapiens) (O43781 whole entry): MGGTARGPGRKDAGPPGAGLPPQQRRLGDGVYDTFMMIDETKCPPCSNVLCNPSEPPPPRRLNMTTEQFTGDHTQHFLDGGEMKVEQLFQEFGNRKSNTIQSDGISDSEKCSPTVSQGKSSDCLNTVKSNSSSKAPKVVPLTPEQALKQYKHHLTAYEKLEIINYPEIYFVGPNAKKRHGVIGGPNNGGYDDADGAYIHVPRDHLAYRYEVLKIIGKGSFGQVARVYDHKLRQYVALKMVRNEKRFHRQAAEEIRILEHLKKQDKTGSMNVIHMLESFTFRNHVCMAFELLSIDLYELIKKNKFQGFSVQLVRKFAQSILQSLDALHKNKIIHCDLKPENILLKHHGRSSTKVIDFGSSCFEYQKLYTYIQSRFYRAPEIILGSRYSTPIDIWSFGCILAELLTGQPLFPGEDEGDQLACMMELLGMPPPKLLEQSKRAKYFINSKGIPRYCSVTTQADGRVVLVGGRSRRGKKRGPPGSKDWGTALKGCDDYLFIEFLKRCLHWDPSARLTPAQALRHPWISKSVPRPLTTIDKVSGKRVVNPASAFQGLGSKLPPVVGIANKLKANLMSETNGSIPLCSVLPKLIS
Chain of Cytochrome P450 2C9 (P11712 whole entry): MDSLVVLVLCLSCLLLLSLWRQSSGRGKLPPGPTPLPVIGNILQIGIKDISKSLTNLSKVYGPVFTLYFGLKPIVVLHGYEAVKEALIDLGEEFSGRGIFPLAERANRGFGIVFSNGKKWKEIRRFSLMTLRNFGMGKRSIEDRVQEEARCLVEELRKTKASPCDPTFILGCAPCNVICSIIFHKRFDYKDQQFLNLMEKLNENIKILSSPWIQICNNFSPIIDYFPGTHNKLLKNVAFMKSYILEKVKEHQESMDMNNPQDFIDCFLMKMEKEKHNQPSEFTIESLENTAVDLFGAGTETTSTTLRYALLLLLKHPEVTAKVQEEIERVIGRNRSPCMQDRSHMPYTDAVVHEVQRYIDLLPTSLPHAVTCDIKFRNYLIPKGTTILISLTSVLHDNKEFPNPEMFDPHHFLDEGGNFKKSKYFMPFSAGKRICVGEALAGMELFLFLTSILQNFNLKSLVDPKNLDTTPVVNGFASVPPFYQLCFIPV
Chain of Dual specificity tyrosine-phosphorylation-regulated kinase 1B (Q9Y463 whole entry, looked up): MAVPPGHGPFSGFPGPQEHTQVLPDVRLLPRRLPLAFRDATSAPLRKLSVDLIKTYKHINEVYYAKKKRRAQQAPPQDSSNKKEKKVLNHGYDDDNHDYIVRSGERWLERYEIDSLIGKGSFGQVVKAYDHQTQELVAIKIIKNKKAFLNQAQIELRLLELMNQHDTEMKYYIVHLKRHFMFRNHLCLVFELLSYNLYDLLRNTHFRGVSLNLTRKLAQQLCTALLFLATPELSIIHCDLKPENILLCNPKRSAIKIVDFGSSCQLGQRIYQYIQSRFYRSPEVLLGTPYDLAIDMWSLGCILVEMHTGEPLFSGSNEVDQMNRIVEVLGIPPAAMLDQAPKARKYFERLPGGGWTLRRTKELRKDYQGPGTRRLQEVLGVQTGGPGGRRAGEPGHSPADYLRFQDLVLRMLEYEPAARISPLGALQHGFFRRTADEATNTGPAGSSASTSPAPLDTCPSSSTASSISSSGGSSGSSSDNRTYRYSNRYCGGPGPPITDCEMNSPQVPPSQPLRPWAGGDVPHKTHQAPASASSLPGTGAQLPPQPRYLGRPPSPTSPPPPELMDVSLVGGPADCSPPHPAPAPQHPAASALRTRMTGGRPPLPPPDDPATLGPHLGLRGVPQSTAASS
Chain of Dual specificity protein kinase CLK4 (Q9HAZ1 whole entry, looked up): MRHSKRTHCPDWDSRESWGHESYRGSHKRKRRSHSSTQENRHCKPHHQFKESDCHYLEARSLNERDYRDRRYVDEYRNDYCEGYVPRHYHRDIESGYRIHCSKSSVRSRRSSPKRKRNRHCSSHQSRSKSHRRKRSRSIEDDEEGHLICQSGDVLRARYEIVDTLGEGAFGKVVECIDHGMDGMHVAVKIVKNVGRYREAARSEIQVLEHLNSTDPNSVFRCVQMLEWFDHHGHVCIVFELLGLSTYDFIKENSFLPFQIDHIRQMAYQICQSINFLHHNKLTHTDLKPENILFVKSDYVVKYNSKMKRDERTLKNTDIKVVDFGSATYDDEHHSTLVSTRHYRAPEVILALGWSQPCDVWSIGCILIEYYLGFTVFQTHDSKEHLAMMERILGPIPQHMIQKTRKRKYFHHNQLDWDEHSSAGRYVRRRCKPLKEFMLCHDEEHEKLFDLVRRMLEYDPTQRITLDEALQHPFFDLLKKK
Chain of CYP2D6 (P10635 whole entry): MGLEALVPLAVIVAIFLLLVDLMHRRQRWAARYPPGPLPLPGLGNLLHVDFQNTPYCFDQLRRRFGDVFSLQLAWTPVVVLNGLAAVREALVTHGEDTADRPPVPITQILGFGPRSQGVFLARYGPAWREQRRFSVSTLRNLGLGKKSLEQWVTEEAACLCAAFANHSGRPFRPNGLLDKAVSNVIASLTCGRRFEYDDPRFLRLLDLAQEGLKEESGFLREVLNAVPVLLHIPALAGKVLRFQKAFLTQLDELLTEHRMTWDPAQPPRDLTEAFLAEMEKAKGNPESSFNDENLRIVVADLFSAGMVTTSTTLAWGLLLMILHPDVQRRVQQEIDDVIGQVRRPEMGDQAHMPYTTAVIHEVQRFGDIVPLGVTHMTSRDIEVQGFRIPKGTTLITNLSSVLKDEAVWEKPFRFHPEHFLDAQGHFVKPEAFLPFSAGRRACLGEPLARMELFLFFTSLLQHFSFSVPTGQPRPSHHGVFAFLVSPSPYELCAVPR
Chain of Dual specificity protein kinase CLK3 (P49761 whole entry, looked up): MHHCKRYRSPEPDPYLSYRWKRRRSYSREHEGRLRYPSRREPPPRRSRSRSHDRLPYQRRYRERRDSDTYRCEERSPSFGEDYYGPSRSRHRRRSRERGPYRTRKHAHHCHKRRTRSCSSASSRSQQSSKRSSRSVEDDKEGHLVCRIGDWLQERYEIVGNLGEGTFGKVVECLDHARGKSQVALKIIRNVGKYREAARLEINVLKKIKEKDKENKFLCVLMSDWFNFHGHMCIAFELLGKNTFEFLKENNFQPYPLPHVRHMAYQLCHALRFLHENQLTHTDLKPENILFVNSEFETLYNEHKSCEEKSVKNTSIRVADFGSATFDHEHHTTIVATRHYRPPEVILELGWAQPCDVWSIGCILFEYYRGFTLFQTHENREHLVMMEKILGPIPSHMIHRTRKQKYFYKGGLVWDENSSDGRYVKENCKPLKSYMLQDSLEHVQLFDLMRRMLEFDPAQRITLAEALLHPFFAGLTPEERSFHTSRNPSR
Chain of CYP3A4 (P08684 whole entry): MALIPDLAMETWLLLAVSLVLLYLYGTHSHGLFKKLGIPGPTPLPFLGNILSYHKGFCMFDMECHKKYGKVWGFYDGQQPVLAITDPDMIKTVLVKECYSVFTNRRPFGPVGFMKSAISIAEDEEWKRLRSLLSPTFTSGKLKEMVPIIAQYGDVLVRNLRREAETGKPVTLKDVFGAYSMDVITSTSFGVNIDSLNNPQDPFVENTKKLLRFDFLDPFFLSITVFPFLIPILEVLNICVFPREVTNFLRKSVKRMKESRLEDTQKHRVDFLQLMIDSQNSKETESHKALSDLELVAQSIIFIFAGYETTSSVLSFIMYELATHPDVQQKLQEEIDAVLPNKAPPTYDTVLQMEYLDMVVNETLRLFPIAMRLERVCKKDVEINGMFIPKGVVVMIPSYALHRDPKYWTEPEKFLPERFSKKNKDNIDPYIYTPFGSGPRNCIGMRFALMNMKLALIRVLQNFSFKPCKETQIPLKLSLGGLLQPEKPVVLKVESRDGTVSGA

## Cc1ccc2c(-c3ccc4ncnc(N[C@H](CO)c5ccccc5)c4c3)c[nH]c2n1
[1]
  AUC(0-inf): 3010 ng·h/mL
[2]
  Activity: Non-Toxic
[3]
  concentration at 4 h: 39.1 ng/g
[4]
  AUC(0-inf): 1590 ng·h/mL
[5]
  clearance: 23.7 mL/min/kg
[6]
  inhibition: 100%
[7]
  inhibition: 113%
[8]
  inhibition: 100%
CYP3A4
  inhibition at 40 min, 10 µM: 63.3%
Cytochrome P450 2C9
  IC50: 240 nM
[9]
  concentration at 6 h: 13.1 ng/g
[10]
  concentration at 4 h: 254 ng/mL
[11]
  concentration at 1 h: 26.9 ng/g
[12]
  inhibition: 99.5%
[13]
  Activity: Non-Toxic
[14]
  Cmax: 272 ng/mL
[15]
  MRT last at 24 h: 5.77 h
CYP2D6
  inhibition at 40 min, 10 µM: 65.8%
Mus musculus [16]
  Activity: Active
[17]
  Papp B→A at […], 5 µM: 30.6 ×10⁻⁶ cm/s
[18]
  concentration at 1 h: 353 ng/mL
[19]
  inhibition: 98.1%
Mus musculus [20]
  Activity: Active
SH-SY5Y
  Activity: Active
Mus musculus [21]
  Activity: Active
[22]
  Papp A→B at […], 5 µM: 2.67 ×10⁻⁶ cm/s
[23]
  half-life: 3.95 h
HEK-293T
  Activity: Toxic
Mus musculus [24]
  Activity: Active
[25]
  IC50: 1.68 nM
[26]
  Activity: Non-Toxic
[27]
  Activity: Non-Toxic
[28]
  Activity: Non-Toxic
[29]
  IC50: 1420 nM
